The experiment has as its target NS3 (Hepatitis C virus, UniProt A3EZJ3). The experiment is described as follows: Inhibitory concentration required against NS3 Protease of Hepatitis C Virus. The arrangement: species or system Hepacivirus hominis.

Starred links: 1 amine or outer side, 2 acyl side, 3 side chain; linkers in the order of their positions; H or OH if unused. Non-standard residues stand in square brackets, D forms with d. Residues, ends and D or L forms follow the SMILES beside them. *: point of attachment. CH2(1-naphthyl) = c1ccc2c(C*)cccc2c1; Hyp = O=C(O)[C@@H]1C[C@@H](O)CN1; Suc = O=C(CCC(=O)[*:2])[*:1]; Nva = CCC[C@H](N)C(=O)O; Ac3c = NC1(C(=O)O)CC1

NS3, sequence (A3EZJ3 whole entry): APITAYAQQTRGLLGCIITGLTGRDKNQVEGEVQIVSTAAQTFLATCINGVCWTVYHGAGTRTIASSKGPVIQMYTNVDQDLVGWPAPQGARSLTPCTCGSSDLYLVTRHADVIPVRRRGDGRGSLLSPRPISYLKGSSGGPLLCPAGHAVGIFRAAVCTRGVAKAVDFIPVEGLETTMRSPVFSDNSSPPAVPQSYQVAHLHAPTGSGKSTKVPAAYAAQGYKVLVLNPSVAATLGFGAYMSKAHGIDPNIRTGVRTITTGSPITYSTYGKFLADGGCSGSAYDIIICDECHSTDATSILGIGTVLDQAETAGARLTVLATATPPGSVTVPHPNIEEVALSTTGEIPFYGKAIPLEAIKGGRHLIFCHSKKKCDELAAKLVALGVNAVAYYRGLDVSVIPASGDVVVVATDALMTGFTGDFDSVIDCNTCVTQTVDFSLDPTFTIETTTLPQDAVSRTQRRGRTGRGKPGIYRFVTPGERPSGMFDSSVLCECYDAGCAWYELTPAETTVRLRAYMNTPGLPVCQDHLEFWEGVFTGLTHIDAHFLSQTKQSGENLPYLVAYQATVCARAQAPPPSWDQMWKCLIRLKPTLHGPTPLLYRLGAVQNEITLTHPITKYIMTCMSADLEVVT

`CCC[C@H](NC(=O)[C@@H]1C[C@@H](OCc2cccc3ccccc23)CN1C(=O)[C@@H](NC(=O)[C@@H](NC(=O)CCC(=O)O)[C@@H](C)CC)C(C)C)C(=O)O` (Suc-IV[Hyp](CH2(1-naphthyl))[Nva]-OH) registered an IC50 of 22 µM. To `CC[C@H](C)[C@H](NC(=O)CCC(=O)O)C(=O)N[C@H](C(=O)N1C[C@H](OCc2cccc3ccccc23)C[C@H]1C(=O)NC1(C(=O)O)CC1)C(C)C` (Suc-IV[Hyp](CH2(1-naphthyl))[Ac3c]-OH) belongs 5.5 µM.

One may read the IC50 as the concentration that inhibits the measured activity by half. A low value points to higher potency.
